According to patent US20220364065A1, “COMPOSITION FOR REMOVING PLURIPOTENT STEM CELLS AND METHOD OF REMOVING PLURIPOTENT STEM CELLS” (NATIONAL UNIVERSITY CORPORATION HOKKAIDO UNIVERSITY, priority 2018, published 2022):
Peptide text beside a SMILES is read from it. * marks the point of attachment. Cbz = O=C(OCc1ccccc1)*; CH2F = FC*

Experiments:
[1] = test system: mouse ES cells; assay: Immunostaining of pluripotent stem cell markers (Sox2, Nanog, Oct4), ES cells; assay type: cell-based; settings: ES cells, BRQ 10 μM
Description: (§1) The cells were fixed and immunostained as described in Kondo et al., Genes Dev. […] For the culture of ES cells and iPS cells, gelatin-coated ones were used.
(§2) For immunostaining, the cells were first washed once with PBS, then fixed by adding 4% paraformaldehyde and incubating for 10 minutes at room temperature. The cells were replaced with PBS containing 0.3% Triton X100 and incubated for 5 minutes at room temperature, then replaced with PBS containing 0.3% Triton X100 and 10% FCS (blocking solution) and incubated for 30 minutes at room temperature. The solution was replaced with primary antibody solution diluted in blocking solution and incubated for 2 hours at room temperature. After washing three times with PBS, secondary antibody and DAPI solution diluted with blocking solution were added and incubated at room temperature for 2 hours. […] Note that the cell nuclei were visualized by contrast staining with DAPI solution (1 μg/mL, manufactured by Dojindo, product code: D523). In addition, fluorescence images were acquired with an Axiolmager M1 microscope (manufactured by Carl Zeiss).
(§3) LMB is a specific inhibitor of CRM1, also known as Exportin 1.

[2] = test system: mouse iPS cells; assay: Immunostaining of pluripotent stem cell markers (Sox2, Nanog, Oct4), iPS cells; assay type: cell-based; settings: iPS cells, BRQ 10 μM
Description: as §1, §2, §3

[3] = test system: mouse ES cells; assay: Nucleoside neutralization experiment (MTT), ES cells; settings: 10 μM BRQ, 3 days, added up to 500 μM
Description: (§4) Pyrimidine synthesis is regulated by the de novo (de novo synthesis) pathway and salvage pathway. DHODH is a key factor in de novo synthesis, catalyzing the fourth chemical reaction in the synthetic pathway. In view of this, the present inventor investigated whether the effect of eliminating pluripotent stem cells by DHODH inhibitors could be eliminated by adding nucleosides such as uridine, which is the starting material of the salvage pathway.
(§5) In addition, UMP, a product of the pyrimidine synthesis pathway, is converted to UDP and UTP. Furthermore, uridine diphosphate-N-acetylglucosamine (UDP-GlcNac) is also biosynthesized using UTP as a substrate. […] Therefore, the present inventor verified whether the cytotoxic activity of DHODH inhibitors on pluripotent stem cells could also be neutralized by the products from these UMPs.

[4] = test system: mouse iPS cells; assay: Nucleoside neutralization experiment (MTT), iPS cells; settings: 10 μM BRQ, 3 days, added up to 500 μM
Description: as §4, §5

CCC(=C/[C@H](C)C/C=C/C(C)=C/[C@@H](C)C(=O)[C@@H](C)[C@H](O)[C@@H](C)C/C(C)=C/C(=O)O)/C=C/[C@@H]1OC(=O)C=C[C@@H]1C [LMB, leptomycin B]
nuclear export of Nanog and Oct4 in cells treated with BRQ ([1]; 2 days, LMB 0.15 nM): completely suppressed
nuclear export of Nanog and Oct4 in cells treated with BRQ ([2]; 2 days, LMB 0.15 nM): completely suppressed

CC(NC(=O)C(NC(=O)OCc1ccccc1)C(C)C)C(=O)NC(CC(=O)O)C(=O)CF (stereo not drawn) [Z-VAD] (Cbz-Val-Ala-Asp-CH2F; configuration not given here)
effect on BRQ-dependent cell death ([1]; ZVAD 100 nM): slight delay
effect on BRQ-dependent cell death ([2]; ZVAD 100 nM): slight delay

uridine diphosphate-N-acetylglucosamine [UDP-GlcNac]
neutralizing activity against the cytotoxic activity of BRQ [3]: neutralized
neutralizing activity against the cytotoxic activity of BRQ [4]: neutralized
